Measurements taken from patent US8034817B2, “Treatment of bacterial diseases of the respiratory organs” (Bayer Pharma Aktiengesellschaft, priority 2003, dated 2011).
Counter-ions that a name gives are not always drawn. Like-named read-outs stand apart in the source and are kept apart here.

Key:
P. aeruginosa DSM 12055 [1] = assay: Efficacy in a model of lung infection with P. aeruginosa, treatment 1 and 4 hours after infection, microbe count in the lungs; assay type: in vivo, P. aeruginosa (host: female Wistar rats); conditions: lungs after 24 h relative to untreated infection control, average for 5 animals
Experimental: Efficacy in a Model of Lung Infection with P. aeruginosa
[…]. Various dose groups each of 5 rats were employed. The animals were sacrificed 24 hours after the infection, and the lungs were removed and homogenized with a Potter from Braun. The homogenates were plated out to determine the microbe count in the lungs.

[2] = average for 3 animals
P. aeruginosa DSM 12055 [3] = assay: Further test with P. aeruginosa DSM 12055, single intratracheal dry powder treatment, microbe count in the lungs; assay type: in vivo, P. aeruginosa (host: rats); conditions: single intratracheal treatment 1 hour after infection, 10 mg/kg, DP-3 dry powder insufflator
Experimental: A dose of 10 mg/kg was administered with the aid of a DP-3 dry powder insufflator (PENN-CENTURY, INC.). It is known from control investigations that about 5 to 20% of the administered dose reach the lungs.

[4] = rats; serum and lungs
[5] = 0.5 h, 7.5 mg/kg intratracheally as suspension, 7.5 mg/kg
[6] = 1 h, 7.5 mg/kg intratracheally as suspension, 7.5 mg/kg
[7] = 3 h, 7.5 mg/kg intratracheally as suspension, 7.5 mg/kg
[8] = 5 h, 7.5 mg/kg intratracheally as suspension, 7.5 mg/kg

## O=C(O)c1cn(C2CC2)c2cc(N3CCNCC3)c(F)cc2c1=O [ciprofloxacin betaine (laboratory product)]
P. aeruginosa DSM 12055 [1]; 0.8 mg/kg i.t.
  Reduction in microbe count: −4.0 log units
P. aeruginosa DSM 12055 [1]; 2.5 mg/kg i.t.
  Reduction in microbe count: −5.8 log units
P. aeruginosa DSM 12055 [1]; 7.5 mg/kg i.t.
  Reduction in microbe count: −10 log units
[2]; [5]
  Lung concentration: 44.3 µg/mL
[2]; [6]
  Lung concentration: 40.1 µg/mL
[2]; [7]
  Lung concentration: 12.6 µg/mL
[2]; [8]
  Lung concentration: 7.21 µg/mL

## O=C(O)c1cn(C2CC2)c2cc(N3CCNCC3)c(F)cc2c1=O [ciprofloxacin betaine (micronized), ciprofloxacin betaine]
P. aeruginosa DSM 12055 [3]
  Reduction of the microbe count in the lungs compared with an untreated control group: more than 6 log units
[2]; 0.25 h, 7.5 mg/kg intratracheally as suspension, 7.5 mg/kg
  Lung concentration: 76 µg/mL
[2]; [5]
  Lung concentration: 76 µg/mL
[2]; [6]
  Lung concentration: 76 µg/mL
[2]; [7]
  Lung concentration: 54 µg/mL
[2]; [8]
  Lung concentration: 54 µg/mL

## Cl.O=C(O)c1cn(C2CC2)c2cc(N3CCNCC3)c(F)cc2c1=O [ciprofloxacin hydrochloride]
P. aeruginosa DSM 12055 [1]; 0.8 mg/kg i.t.
  Reduction in microbe count: −1.8 log units
P. aeruginosa DSM 12055 [1]; 2.5 mg/kg i.t.
  Reduction in microbe count: −1.1 log units
P. aeruginosa DSM 12055 [1]; 2.5 mg/kg i.v.
  Reduction in microbe count: −2.8 log units
P. aeruginosa DSM 12055 [1]; 7.5 mg/kg i.t.
  Reduction in microbe count: −2.8 log units
P. aeruginosa DSM 12055 [1]; 7.5 mg/kg i.v.
  Reduction in microbe count: −3.5 log units
P. aeruginosa DSM 12055 [1]; 22.5 mg/kg i.v.
  Reduction in microbe count: −5.4 log units
P. aeruginosa DSM 12055 [1]; 67.5 mg/kg i.v.
  Reduction in microbe count: −8.8 log units
[2]; 0.25 h, 7.5 mg/kg intravenously as solution
  Lung concentration: 0.61 µg/mL
[2]; 0.5 h, 7.5 mg/kg intratracheally as solution
  Lung concentration: 1.67 µg/mL
[2]; 0.5 h, 7.5 mg/kg intravenously as solution
  Lung concentration: 0.35 µg/mL
[2]; 1 h, 7.5 mg/kg intratracheally as solution
  Lung concentration: 0.63 µg/mL
[2]; 1 h, 7.5 mg/kg intravenously as solution
  Lung concentration: 0.14 µg/mL
[2]; 3 h, 7.5 mg/kg intratracheally as solution
  Lung concentration: 0.10 µg/mL
[2]; 3 h, 7.5 mg/kg intravenously as solution
  Lung concentration: 0 µg/mL
[2]; 5 h, 7.5 mg/kg intratracheally as solution
  Lung concentration: 0 µg/mL
[2]; 5 h, 7.5 mg/kg intravenously as solution
  Lung concentration: 0 µg/mL

## COc1c(N2C[C@@H]3CCCN[C@@H]3C2)c(F)cc2c(=O)c(C(=O)O)cn(C3CC3)c12 [moxifloxacin hydrochloride, Moxifloxacin hydrochloride]
[4]
  Fall of the concentration after intratracheal administration to the level reached orally: within about an hour
